Reference: the supplement of paper PMC10307832

What was measured:
Assay in all cases: relative viability (nuclei count vs DMSO), 5 days (fraction); higher = more cells survive
Avagacestat + Pictilisib = compound: NC(=O)[C@@H](CCC(F)(F)F)N(Cc1ccc(-c2ncon2)cc1F)S(=O)(=O)c1ccc(Cl)cc1 [Avagacestat] + CS(=O)(=O)N1CCN(Cc2cc3nc(-c4cccc5[nH]ncc45)nc(N4CCOCC4)c3s2)CC1 [Pictilisib] (partner 1 µM)
Procedure, shortened: (§1)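 The day after seeding in 1536-well plates, lung cancer cell lines were treated by pin tool with a single drug, or with a fixed anchor-drug dose together with five library-drug doses (not always all listed) in √10 steps. After 5 days, a combined fix-and-stain solution (final 0.05% Triton X-100, 1% formaldehyde, 1 ug/ml Hoechst) was added. Nuclei counted on 4× images gave relative viability as treated counts over vehicle counts, reported as the median of duplicate plates.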

Avagacestat + Phenformin = compound: NC(=O)[C@@H](CCC(F)(F)F)N(Cc1ccc(-c2ncon2)cc1F)S(=O)(=O)c1ccc(Cl)cc1 [Avagacestat] + N=C(N)NC(=N)NCCc1ccccc1 [Phenformin] (partner 250 µM)
Procedure, shortened: as §1

Avagacestat + Decitabine = compound: NC(=O)[C@@H](CCC(F)(F)F)N(Cc1ccc(-c2ncon2)cc1F)S(=O)(=O)c1ccc(Cl)cc1 [Avagacestat] + Nc1ncn([C@H]2C[C@H](O)[C@@H](CO)O2)c(=O)n1 [Decitabine] (partner 2 µM)
Procedure, shortened: as §1

[1] = compound: NC(=O)[C@@H](CCC(F)(F)F)N(Cc1ccc(-c2ncon2)cc1F)S(=O)(=O)c1ccc(Cl)cc1 [Avagacestat] + CC(=O)c1c(C)c2cnc(Nc3ccc(N4CCNCC4)cn3)nc2n(C2CCCC2)c1=O [Palbociclib] (partner 0.5 µM)
Procedure, shortened: as §1

## NCI-H1792
Avagacestat + Pictilisib; first compound 0.08 µM
  relative viability: 0.252
Avagacestat + Pictilisib; first compound 0.253 µM
  relative viability: 0.315
Avagacestat + Pictilisib; first compound 0.8 µM
  relative viability: 0.264
Avagacestat + Pictilisib; first compound 2.53 µM
  relative viability: 0.24
Avagacestat + Pictilisib; first compound 8 µM
  relative viability: 0.21
Avagacestat + Phenformin; first compound 0.08 µM
  relative viability: 0.474
Avagacestat + Phenformin; first compound 0.253 µM
  relative viability: 0.304
Avagacestat + Phenformin; first compound 0.8 µM
  relative viability: 0.391
Avagacestat + Phenformin; first compound 2.53 µM
  relative viability: 0.19
Avagacestat + Phenformin; first compound 8 µM
  relative viability: 0.304
Avagacestat + Decitabine; first compound 0.08 µM
  relative viability: 0.722
Avagacestat + Decitabine; first compound 0.253 µM
  relative viability: 0.561
Avagacestat + Decitabine; first compound 0.8 µM
  relative viability: 0.618
Avagacestat + Decitabine; first compound 2.53 µM
  relative viability: 0.487
Avagacestat + Decitabine; first compound 8 µM
  relative viability: 0.426
[1]; first compound 0.08 µM
  relative viability: 0.817
[1]; first compound 0.8 µM
  relative viability: 0.751
[1]; first compound 8 µM
  relative viability: 0.612

## NCI-H2126
Avagacestat + Pictilisib; first compound 0.08 µM
  relative viability: 0.521
Avagacestat + Pictilisib; first compound 0.253 µM
  relative viability: 0.461
Avagacestat + Pictilisib; first compound 0.8 µM
  relative viability: 0.487
Avagacestat + Pictilisib; first compound 2.53 µM
  relative viability: 0.477
Avagacestat + Pictilisib; first compound 8 µM
  relative viability: 0.463
Avagacestat + Phenformin; first compound 0.08 µM
  relative viability: 0.509
Avagacestat + Phenformin; first compound 0.253 µM
  relative viability: 0.516
Avagacestat + Phenformin; first compound 0.8 µM
  relative viability: 0.569
Avagacestat + Phenformin; first compound 2.53 µM
  relative viability: 0.561
Avagacestat + Phenformin; first compound 8 µM
  relative viability: 0.511
Avagacestat + Decitabine; first compound 0.08 µM
  relative viability: 0.615
Avagacestat + Decitabine; first compound 0.253 µM
  relative viability: 0.661
Avagacestat + Decitabine; first compound 0.8 µM
  relative viability: 0.577
Avagacestat + Decitabine; first compound 2.53 µM
  relative viability: 0.575
Avagacestat + Decitabine; first compound 8 µM
  relative viability: 0.611
[1]; first compound 0.08 µM
  relative viability: 0.395
[1]; first compound 0.253 µM
  relative viability: 0.355
[1]; first compound 0.8 µM
  relative viability: 0.385
[1]; first compound 2.53 µM
  relative viability: 0.358
[1]; first compound 8 µM
  relative viability: 0.373

## NCI-H23
Avagacestat + Pictilisib; first compound 0.08 µM
  relative viability: 0.523
Avagacestat + Pictilisib; first compound 0.253 µM
  relative viability: 0.453
Avagacestat + Pictilisib; first compound 0.8 µM
  relative viability: 0.472
Avagacestat + Pictilisib; first compound 2.53 µM
  relative viability: 0.475
Avagacestat + Pictilisib; first compound 8 µM
  relative viability: 0.555
Avagacestat + Phenformin; first compound 0.08 µM
  relative viability: 0.941
Avagacestat + Phenformin; first compound 0.253 µM
  relative viability: 0.86
Avagacestat + Phenformin; first compound 0.8 µM
  relative viability: 0.761
Avagacestat + Phenformin; first compound 2.53 µM
  relative viability: 0.859
Avagacestat + Phenformin; first compound 8 µM
  relative viability: 0.851
Avagacestat + Decitabine; first compound 0.08 µM
  relative viability: 0.416
Avagacestat + Decitabine; first compound 0.253 µM
  relative viability: 0.316
Avagacestat + Decitabine; first compound 0.8 µM
  relative viability: 0.308
Avagacestat + Decitabine; first compound 2.53 µM
  relative viability: 0.328
Avagacestat + Decitabine; first compound 8 µM
  relative viability: 0.272
[1]; first compound 0.08 µM
  relative viability: 0.515
[1]; first compound 0.253 µM
  relative viability: 0.566
[1]; first compound 0.8 µM
  relative viability: 0.505
[1]; first compound 2.53 µM
  relative viability: 0.44
[1]; first compound 8 µM
  relative viability: 0.572

## PC-14
Avagacestat + Pictilisib; first compound 0.08 µM
  relative viability: 1.06
Avagacestat + Pictilisib; first compound 0.253 µM
  relative viability: 0.627
Avagacestat + Pictilisib; first compound 0.8 µM
  relative viability: 0.673
Avagacestat + Pictilisib; first compound 2.53 µM
  relative viability: 0.544
Avagacestat + Pictilisib; first compound 8 µM
  relative viability: 0.539
Avagacestat + Phenformin; first compound 0.08 µM
  relative viability: 0.768
Avagacestat + Phenformin; first compound 0.253 µM
  relative viability: 0.728
Avagacestat + Phenformin; first compound 0.8 µM
  relative viability: 0.86
Avagacestat + Phenformin; first compound 8 µM
  relative viability: 0.628
Avagacestat + Decitabine; first compound 0.08 µM
  relative viability: 0.219
Avagacestat + Decitabine; first compound 0.253 µM
  relative viability: 0.244
Avagacestat + Decitabine; first compound 0.8 µM
  relative viability: 0.218
Avagacestat + Decitabine; first compound 2.53 µM
  relative viability: 0.272
Avagacestat + Decitabine; first compound 8 µM
  relative viability: 0.244
[1]; first compound 0.08 µM
  relative viability: 0.645
[1]; first compound 0.253 µM
  relative viability: 0.618
[1]; first compound 0.8 µM
  relative viability: 0.687
[1]; first compound 2.53 µM
  relative viability: 0.461
[1]; first compound 8 µM
  relative viability: 0.524

## NCI-H727
Avagacestat + Pictilisib; first compound 0.08 µM
  relative viability: 0.537
Avagacestat + Pictilisib; first compound 0.253 µM
  relative viability: 0.356
Avagacestat + Pictilisib; first compound 0.8 µM
  relative viability: 0.512
Avagacestat + Pictilisib; first compound 2.53 µM
  relative viability: 0.434
Avagacestat + Pictilisib; first compound 8 µM
  relative viability: 0.603
Avagacestat + Phenformin; first compound 0.08 µM
  relative viability: 0.684
Avagacestat + Phenformin; first compound 0.253 µM
  relative viability: 0.489
Avagacestat + Phenformin; first compound 0.8 µM
  relative viability: 0.778
Avagacestat + Phenformin; first compound 2.53 µM
  relative viability: 0.421
Avagacestat + Phenformin; first compound 8 µM
  relative viability: 0.613
Avagacestat + Decitabine; first compound 0.08 µM
  relative viability: 0.889
Avagacestat + Decitabine; first compound 0.253 µM
  relative viability: 0.815
Avagacestat + Decitabine; first compound 0.8 µM
  relative viability: 1.06
Avagacestat + Decitabine; first compound 2.53 µM
  relative viability: 0.836
Avagacestat + Decitabine; first compound 8 µM
  relative viability: 0.875
[1]; first compound 0.08 µM
  relative viability: 0.578
[1]; first compound 0.253 µM
  relative viability: 0.577
[1]; first compound 0.8 µM
  relative viability: 0.606
[1]; first compound 2.53 µM
  relative viability: 0.684
[1]; first compound 8 µM
  relative viability: 0.672

## NCI-H647
Avagacestat + Pictilisib; first compound 0.08 µM
  relative viability: 0.487
Avagacestat + Pictilisib; first compound 0.253 µM
  relative viability: 0.504
Avagacestat + Pictilisib; first compound 0.8 µM
  relative viability: 0.459
Avagacestat + Pictilisib; first compound 2.53 µM
  relative viability: 0.41
Avagacestat + Pictilisib; first compound 8 µM
  relative viability: 0.372
Avagacestat + Phenformin; first compound 0.08 µM
  relative viability: 0.534
Avagacestat + Phenformin; first compound 0.253 µM
  relative viability: 0.587
Avagacestat + Phenformin; first compound 0.8 µM
  relative viability: 0.692
Avagacestat + Phenformin; first compound 2.53 µM
  relative viability: 0.487
Avagacestat + Phenformin; first compound 8 µM
  relative viability: 0.414
Avagacestat + Decitabine; first compound 0.08 µM
  relative viability: 0.459
Avagacestat + Decitabine; first compound 0.253 µM
  relative viability: 0.465
Avagacestat + Decitabine; first compound 0.8 µM
  relative viability: 0.42
Avagacestat + Decitabine; first compound 2.53 µM
  relative viability: 0.374
Avagacestat + Decitabine; first compound 8 µM
  relative viability: 0.377
[1]; first compound 0.08 µM
  relative viability: 0.456
[1]; first compound 0.253 µM
  relative viability: 0.497
[1]; first compound 0.8 µM
  relative viability: 0.486
[1]; first compound 2.53 µM
  relative viability: 0.341
[1]; first compound 8 µM
  relative viability: 0.35

## EBC-1
Avagacestat + Pictilisib; first compound 0.08 µM
  relative viability: 0.429
Avagacestat + Pictilisib; first compound 0.253 µM
  relative viability: 0.331
Avagacestat + Pictilisib; first compound 0.8 µM
  relative viability: 0.413
Avagacestat + Pictilisib; first compound 2.53 µM
  relative viability: 0.362
Avagacestat + Pictilisib; first compound 8 µM
  relative viability: 0.327

## NCI-H838
Avagacestat + Pictilisib; first compound 0.08 µM
  relative viability: 0.504
Avagacestat + Pictilisib; first compound 0.253 µM
  relative viability: 0.405
Avagacestat + Pictilisib; first compound 0.8 µM
  relative viability: 0.568
Avagacestat + Pictilisib; first compound 2.53 µM
  relative viability: 0.411
Avagacestat + Pictilisib; first compound 8 µM
  relative viability: 0.319
Avagacestat + Phenformin; first compound 0.08 µM
  relative viability: 0.622
Avagacestat + Phenformin; first compound 0.253 µM
  relative viability: 0.537
Avagacestat + Phenformin; first compound 0.8 µM
  relative viability: 0.598
Avagacestat + Phenformin; first compound 2.53 µM
  relative viability: 0.509
Avagacestat + Phenformin; first compound 8 µM
  relative viability: 0.484
Avagacestat + Decitabine; first compound 0.08 µM
  relative viability: 0.483
Avagacestat + Decitabine; first compound 0.253 µM
  relative viability: 0.48
Avagacestat + Decitabine; first compound 0.8 µM
  relative viability: 0.466
Avagacestat + Decitabine; first compound 2.53 µM
  relative viability: 0.471
Avagacestat + Decitabine; first compound 8 µM
  relative viability: 0.442
[1]; first compound 0.08 µM
  relative viability: 0.221
[1]; first compound 0.253 µM
  relative viability: 0.244
[1]; first compound 0.8 µM
  relative viability: 0.226
[1]; first compound 2.53 µM
  relative viability: 0.208
[1]; first compound 8 µM
  relative viability: 0.215

## NCI-H1355
Avagacestat + Pictilisib; first compound 0.08 µM
  relative viability: 0.442
Avagacestat + Pictilisib; first compound 0.253 µM
  relative viability: 0.423
Avagacestat + Pictilisib; first compound 0.8 µM
  relative viability: 0.421
Avagacestat + Pictilisib; first compound 2.53 µM
  relative viability: 0.385
Avagacestat + Pictilisib; first compound 8 µM
  relative viability: 0.418
Avagacestat + Phenformin; first compound 0.08 µM
  relative viability: 0.499
Avagacestat + Phenformin; first compound 0.253 µM
  relative viability: 0.441
Avagacestat + Phenformin; first compound 0.8 µM
  relative viability: 0.465
Avagacestat + Phenformin; first compound 2.53 µM
  relative viability: 0.422
Avagacestat + Phenformin; first compound 8 µM
  relative viability: 0.41
Avagacestat + Decitabine; first compound 0.08 µM
  relative viability: 0.357
Avagacestat + Decitabine; first compound 0.253 µM
  relative viability: 0.329
Avagacestat + Decitabine; first compound 0.8 µM
  relative viability: 0.371
Avagacestat + Decitabine; first compound 2.53 µM
  relative viability: 0.344
Avagacestat + Decitabine; first compound 8 µM
  relative viability: 0.309
[1]; first compound 0.08 µM
  relative viability: 0.441
[1]; first compound 0.253 µM
  relative viability: 0.418
[1]; first compound 0.8 µM
  relative viability: 0.353
[1]; first compound 2.53 µM
  relative viability: 0.351
[1]; first compound 8 µM
  relative viability: 0.333
